{"source": "paper PMC6980506", "about": "“Comparative pharmacokinetics and pharmacodynamics of the advanced Retinol-Binding Protein 4 antagonist in dog and cynomolgus monkey” (PLoS ONE, 2020)", "assay": "Single dose pharmacokinetic study in beagle dog", "type": "in vivo", "conditions": "male, beagle, plasma; for concentration at 8 h / concentration at 12 h / concentration at 24 h / concentration at 36 h / concentration at 48 h / concentration at 0.25 h / concentration at 0.5 h / concentration at 1 h / concentration at 2 h / concentration at 4 h / concentration at 10 h: male beagle dog; for half-life: read-out: T1/2, apparent terminal half-life (converted)", "protocol": "Pharmacokinetic studies were conducted in male beagle dogs and male cynomolgus monkeys at SRI International, Menlo Park, CA. General procedures for animal care and housing were in accordance with the National Research Council (NRC) Guide for the Care and Use of Laboratory Animals (1996) and the Animal Welfare Standards incorporated in 9 CFR Part 3, 1991 and complied with guidelines set forth by the ARVO Animal Statement for the Use of Animals in Ophthalmic and Vision Research. During the course of the PK experiments, cynomolgus monkeys were individually housed in stainless steel primary enclosures in an AAALAC-accredited facility. Animals were fed a commercial monkey chow, and supplemental food was provided (fresh fruits, vegetables, seeds, and nuts). Reverse osmosis-purified drinking water was available at all times. Cynomolgus monkeys were maintained on a 12:12 hour light:dark cycle at the 64–84°F temperature and 30–70% humidity. Monkeys had access to enrichment opportunities (grooming devices, foraging devices, activity panels and mirrors) and were provided auditory stimuli and human interaction enrichment throughout the study. Blood samples were collected by venipuncture of a peripheral vein. Animals were acclimated to the squeeze back mechanism in their home cage by repeated, short periods of restraint during general husbandry procedures for at least 2 weeks prior to dosing. Animal were not removed from their cages for collection, and no anesthesia/analgesic agents were used for blood collection. […] For PK experiments, beagle dogs were individually housed in enclosed run (≥ 4 ft x 6 ft). Dogs were exposed to their daily ration of food, Harlan Teklad 2025C Certified Global 25% Protein Dog Diet. Water was provided from the public water supply (municipal tap water) ad libitum. Dogs were maintained on a 12:12 hour light:dark cycle at the 72–73°F temperature and 40–71% humidity. Every effort was made to minimize, if not eliminate, pain and suffering in all animals in this study. No restraining devices were used in blood collecting procedures. Dogs were gentle hand-held to restrain by trained technicians with the dogs foreleg extended for sample collection of blood from cephalic vein. Animals were awake during blood sample collection with no anesthesia/analgesic agents used, and positive reinforcement by the technician was provided following collection. […] All dogs were released back to the colony after the study was completed. Male beagle dogs and male cynomolgus monkey received a single i.v. dose of a test compound at 0.5 mg kg^−1 (dog) and 1 mg kg^−1 (monkey) or a single p.o. dose of a test compound of at 2 mg kg^−1 (dog) and 5 mg kg^−1 (monkey). The number of animals that was used in PK experiments is 3 per study group. Intravenous administration vehicle was 3% DMA/45% PEG300/12% ethanol/40% sterile water; p.o. vehicle was 2% Tween 80 in 0.9% saline. […] Blood samples were processed to plasma. Following protein extraction with acetonitrile, compound concentrations in plasma were measured by LC-MS/MS. The plasma drug level data were analyzed using WinNonlin software package; Model 201 (for i.v. bolus administration);was used for the analysis of i.v. data, and Model 200 (for extravascular administration) was used for the analysis of the p.o. data. Aliquots of pre-dose plasma samples, as well as aliquots of plasma PK samples, were used for the analysis of the plasmabiomarker, RBP4.", "key": {"[1]": {"conditions": "dog, iv, 0.5 mg/kg, iv 0.5 mg/kg, read-out: Plasma level, Individual animals"}, "[2]": {"conditions": "dog, iv, 0.5 mg/kg, iv 0.5 mg/kg, read-out: Plasma level, Mean"}, "[3]": {"conditions": "dog, po, 2 mg/kg, po 2 mg/kg, read-out: Plasma level, Individual animals"}, "[4]": {"conditions": "dog, po, 2 mg/kg, po 2 mg/kg, read-out: Plasma level, Mean"}, "[5]": {"conditions": "iv, Dog, 0.5 mg kg^−1 i.v., mean ± SD, n=3"}, "[6]": {"conditions": "po, Dog, 2.0 mg kg^−1 p.o., mean ± SD, n=3"}}, "note": "Where two headings read alike, the source gives them in different places.", "data": [{"compound": "Cc1cc(C(=O)O)nc(N2C[C@H]3C[C@@H](c4ccccc4C(F)(F)F)C[C@H]3C2)n1", "note": "[BPN-14136]", "values": [{"measurement": "concentration at 8 h", "setting": "[1]", "value": 217, "unit": "ng/mL"}, {"measurement": "concentration at 8 h", "setting": "[2]", "value": 209, "unit": "ng/mL"}, {"measurement": "concentration at 12 h", "setting": "[2]", "value": 107, "unit": "ng/mL"}, {"measurement": "concentration at 24 h", "setting": "[1]", "value": 169, "unit": "ng/mL"}, {"measurement": "concentration at 24 h", "setting": "[2]", "value": 175, "unit": "ng/mL"}, {"measurement": "concentration at 36 h", "setting": "[1]", "value": 33.3, "unit": "ng/mL"}, {"measurement": "concentration at 36 h", "setting": "[2]", "value": 41, "unit": "ng/mL"}, {"measurement": "concentration at 48 h", "setting": "[1]", "value": 92.8, "unit": "ng/mL"}, {"measurement": "concentration at 48 h", "setting": "[2]", "value": 95.9, "unit": "ng/mL"}, {"measurement": "bioavailability", "setting": "dog, oral, 2 mg kg^−1, Dog, 2.0 mg kg^−1 p.o. vs 0.5 mg kg^−1 i.v., read-out: %F, bioavailability", "value": "~84", "unit": "%"}, {"measurement": "concentration at 0.25 h", "setting": "[3]", "value": 7100, "unit": "ng/mL"}, {"measurement": "concentration at 0.25 h", "setting": "[4]", "value": 7090, "unit": "ng/mL"}, {"measurement": "concentration at 0.5 h", "setting": "[3]", "value": 6340, "unit": "ng/mL"}, {"measurement": "concentration at 0.5 h", "setting": "[4]", "value": 6720, "unit": "ng/mL"}, {"measurement": "concentration at 1 h", "setting": "[3]", "value": 6630, "unit": "ng/mL"}, {"measurement": "concentration at 1 h", "setting": "[4]", "value": 5940, "unit": "ng/mL"}, {"measurement": "concentration at 2 h", "setting": "[3]", "value": 3600, "unit": "ng/mL"}, {"measurement": "concentration at 2 h", "setting": "[4]", "value": 4120, "unit": "ng/mL"}, {"measurement": "concentration at 4 h", "setting": "[3]", "value": 1790, "unit": "ng/mL"}, {"measurement": "concentration at 4 h", "setting": "[4]", "value": 2140, "unit": "ng/mL"}, {"measurement": "concentration at 8 h", "setting": "[3]", "value": 855, "unit": "ng/mL"}, {"measurement": "concentration at 8 h", "setting": "[4]", "value": 904, "unit": "ng/mL"}, {"measurement": "concentration at 10 h", "setting": "[3]", "value": 407, "unit": "ng/mL"}, {"measurement": "concentration at 10 h", "setting": "[4]", "value": 559, "unit": "ng/mL"}, {"measurement": "concentration at 12 h", "setting": "[3]", "value": 453, "unit": "ng/mL"}, {"measurement": "concentration at 12 h", "setting": "[4]", "value": 532, "unit": "ng/mL"}, {"measurement": "concentration at 24 h", "setting": "[3]", "value": 330, "unit": "ng/mL"}, {"measurement": "concentration at 24 h", "setting": "[4]", "value": 383, "unit": "ng/mL"}, {"measurement": "concentration at 36 h", "setting": "[3]", "value": 82.4, "unit": "ng/mL"}, {"measurement": "concentration at 36 h", "setting": "[4]", "value": 94.2, "unit": "ng/mL"}, {"measurement": "concentration at 48 h", "setting": "[4]", "value": 126, "unit": "ng/mL"}, {"measurement": "AUC(0-inf)", "setting": "[5]", "value": "10700 ± 500", "unit": "ng·h/mL"}, {"measurement": "AUC(0-t)", "setting": "[5]", "value": "10300 ± 500", "unit": "ng·h/mL"}, {"measurement": "clearance", "setting": "iv, Dog, 0.5 mg kg^−1 i.v., mean ± SD, n=3, read-out: CL, total body clearance (converted)", "value": 0.783, "unit": "mL/min/kg"}, {"measurement": "Cmax", "setting": "iv, Dog, 0.5 mg kg^−1 i.v., mean ± SD, n=3, read-out: Cmax, maximum observed concentration at first time point", "value": "2700 ± 100", "unit": "ng/mL"}, {"measurement": "half-life", "setting": "[5]", "value": "2.6 ± 0.2", "unit": "h"}, {"measurement": "Vd", "setting": "iv, Dog, 0.5 mg kg^−1 i.v., mean ± SD, n=3, read-out: Vss, volume of distribution at steady state", "value": "0.622 ± 0.0034", "unit": "L/kg"}, {"measurement": "AUC(0-inf)", "setting": "[6]", "value": "35900 ± 4400", "unit": "ng·h/mL"}, {"measurement": "AUC(0-t)", "setting": "[6]", "value": "35400 ± 400", "unit": "ng·h/mL"}, {"measurement": "Tmax", "setting": "[6]", "value": "0.33 ± 0.14", "unit": "h"}, {"measurement": "Cmax", "setting": "po, Dog, 2.0 mg kg^−1 p.o., mean ± SD, n=3, read-out: Cmax", "value": "7500 ± 200", "unit": "ng/mL"}, {"measurement": "half-life", "setting": "[6]", "value": "2.9 ± 0.4", "unit": "h"}]}]}
